Assays:
P-selectin = target: T1, P-selectin (Homo sapiens, UniProt P16109); experiment: HL-60 Cell Binding to P-selectin Rg; assay type: cell-based; conditions: HL-60 cells binding to P-selectin Rg coated wells
T1 construct: consists of the human lectin domain, the EGF domain, and two complement repeats of the human selectins; made in house
Description: 2. HL-60 Cell Binding to P- and E-Selectin RG
Receptor globulin (Rg) Construction
The chimeric P-and E-selectin receptor globulin (Rg) consists of the human lectin domain, the EGF domain, and two complement repeats of the human selectins fused to the hinge, CH1 and CH2 domains of human IgG1. These proteins were prepared as described by Aruffo, et al., Cell (1991) 67: 35-44; Walz, et al., Science (1990) 250, 1132-1135.
Cell binding assay for Rg
The HL-60 cell line, obtained from the American Type Culture Collection, ATCC No. CCL240, was employed to investigate P-selectin Rg binding. Assays were done in 96-well tissue culture dishes. The wells were first coated with 0.5 ug goat anti-human Fc antiserum overnight, and nonspecific binding sites were blocked by incubation of the wells with 1% nonfat dry milk in phosphate buffered saline (PBS containing 0.9 mM CaCl2 and 0.8 mM MgSO4) for 30 minutes. The Rg was then bound to the anti Fc-coated wells by incubating 50 ng in 50 ul of PBS for two hours. Cells, washed twice and resuspended in PBS to remove traces of medium components, were labeled with 10 uM calcein acetoxy methyl ester for 30 minutes at 3×10^7 cells per ml at room temperature. Serum-containing medium (RPMI with 20% fetal calf serum) was added, and the cells washed, followed by resuspension in PBS and a further spin. The labeled cells, resuspended in PBS, were added to twice washed Rg-containing wells at 200,000 per well. Following a 30 minute incubation with slow shaking, the wells were aspirated and washed three times with PBS to remove unbound cells. To certain wells were added known numbers of cells for determination of a standard curve of fluorescent units per cell. The fluorescence on the plate was quantitated using a fluorescent plate reader. Following subtraction of a blank representing the binding of cells to non-Rg containing wells (<5000 cells), the specific binding to P- or E- selectin was determined.
Inhibitors of cell binding
Test compounds were prepared by dissolution to a final concentration of 20 mg/ml in dimethyl sulfoxide (DMSO), diluted in PBS to 2 mg/ml, and briefly sonicated prior to use. The Rg coated wells were preincubated at room temperature for 15 minutes with the inhibitor, and 200,000 cells were added to yield the final indicated inhibitor concentration in 160 ul of PBS. The data is obtained as percent inhibition of specific binding: [formula] and a plot of dose vs. percent inhibition of Rg binding is generated in which IC50 (μM) is calculated and reported in Table 1.

[1] = system: Reverse Passive Arthus Reaction in Rats; experiment: Reverse Passive Arthus Reaction in Rats, vascular permeability (VP); assay type: in vivo; conditions: rat, IV, % inhibition at 3 mg single dose, 4 hours
From the text: (§1) 3. Reverse Passive Arthus Reaction in Rats
(§2) The reverse passive Arthus reaction in rats is a modification of the method by Mulligan et al., as described in J. Clin. Invest., (1991 ) 88:1396-1406. This is an experimental model in which the interaction of antigen-antibody complexes and complement leads to a severe vasculitis that is associated with edema, induration, erythema and hemorrhage. The interaction between the antigen-antibody complexes and complement leads to a localized influx of neutrophils. These neutrophils release a variety of mediators that are associated with tissue damage and vascular permeability. The localized inflammatory reaction is measured using different techniques i.e., vascular permeability and neutrophil influx which is evaluated both biochemically and microscopically.
(§3) Male Sprague Dawley specific pathogen-free rats with jugular vein cannulae (280-320 g, Hill Top Labs, Pa.) are used in these studies. Animals are acclimated for at least 1 day and individually housed in stainless steel cages. The dorsal region of the rats is closely clipped 2 days prior to the experiments and divided into 4 sites on each side of the midline. Prior to all injections the rats are sedated with 0.4 ml per 300 gm rat of ketamine/rompun [1000 mg (10 ml) of ketamine HCL is mixed with 40 mg (2.0 ml) Rompun] administered IP and or inhalation anesthesia with metafane (methoxyflurane).
(§4) Bovin Serum Albumin (BSA) and rabbit polyclonal IgG rich in anti-BSA are purchased from Sigma Chemical Co. (St. Louis, Mo.). Radiolabelled ^125 I-BSA (spAct 1-5 μCi/μg) is purchased from Dupont NEN (Boston, Mass.).
(§5) Each rat is administered intradermal (ID) injection of (0.4 mg, 0.6 mg and 0.8 mg) anti-BSA in a volume of 100 μl per injection in normal saline. The ID injections are randomized near the mid dorsal region on both sides of the back bone. Immediately after the ID injections of the anti-BSA, the rats are administered intravenous (IV) injections of BSA (10 mg in 1.0 ml) in normal saline containing ^125 I labeled BSA (1 μCi/ml BSA or 5.0 μCi/kg body wt) for quantification of dermal vascular injury. Anti-inflammatory agents such as inhibitors of adhesion molecules of the present invention are administered IV at a single dose of 3 mg immediately after BSA. Four (4) hours after the IV injection of BSA, the rats are anesthetized with metafane and 2 to 3 ml of blood is withdrawn via the cannula into an anticoagulant containing (EDTA or Heparin) tube and plasma separated and saved for neutrophil and albumin quantitation. The rats are killed and the skin surrounding the injection site (15 mm diameter) is punched out and weighed. The skin samples and a fixed volume of plasma (0.1 to 1.0 ml) is analyzed in a gamma-counter for ^125 I content. Skin samples from the contralateral side are processed and analyzed for myeloperoxidase activity (MPO) as a measure of neutrophil accumulation. As needed, samples are also processed for histological evaluation of the reacted sites.
Vascular Permeability (VP)
The calculation of the plasma protein exudation into skin is made by determining the radioactivity in the tissue and relating this to the level of radioactive albumin in the blood at the time of sacrifice. […] [formula]
Percent inhibition of the test compound at 3 mg was determined as follows: [formula] Myeloperoxidase (MPO)

[2] = system: Reverse Passive Arthus Reaction in Rats; experiment: Reverse Passive Arthus Reaction in Rats, myeloperoxidase (MPO); assay type: in vivo; conditions: rat, IV, % inhibition at 3 mg single dose, 4 hours
From the text: as §1, §2, §3, §4, §5
MPO is located in the azurephil granules of polymorphonuclear leukocytes (PMN). Because of its abundance in these cells (5% dry weight), this enzyme is used as a marker for tissue neutrophil content. For tissue MPO content, the method of Bradley, et al., was used as described in J. Invest. […] Change in absorbance at 450 nm was measured at room temperature using a Vmax kinetic plate reader (Molecular Devices, Pale Alto, Calif., USA). Percent inhibition of the test compound at 3 mg dose was determined as follows: [formula] […]

T1 sequence (P16109 with tags, fused parts or gaps limits assumed): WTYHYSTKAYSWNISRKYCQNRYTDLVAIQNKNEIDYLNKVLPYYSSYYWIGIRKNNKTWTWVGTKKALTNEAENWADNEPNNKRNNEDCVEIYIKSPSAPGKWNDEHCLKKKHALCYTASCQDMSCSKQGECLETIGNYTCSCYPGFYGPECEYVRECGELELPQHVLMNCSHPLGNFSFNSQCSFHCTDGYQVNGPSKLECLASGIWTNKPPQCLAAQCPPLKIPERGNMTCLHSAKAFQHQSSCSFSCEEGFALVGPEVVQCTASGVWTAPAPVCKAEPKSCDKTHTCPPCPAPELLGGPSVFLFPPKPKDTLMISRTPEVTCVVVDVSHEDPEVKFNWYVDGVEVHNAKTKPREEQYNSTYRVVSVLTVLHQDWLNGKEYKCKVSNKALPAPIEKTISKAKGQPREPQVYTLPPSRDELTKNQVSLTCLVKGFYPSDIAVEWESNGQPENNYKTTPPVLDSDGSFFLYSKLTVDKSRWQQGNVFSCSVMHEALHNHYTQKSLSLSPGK

SMILES | IC50 (P-selectin) [µM] | RPA VP % Inhib. [1] [%] | RPA MPO % Inhib. [2] [%]
CCCCCCCCCCCCC/C=C/[C@@H](O)[C@H](CO[C@@H]1O[C@H](COS(=O)(=O)O)[C@H](OS(=O)(=O)O)[C@H](O)[C@H]1O)NC(=O)CCCCCCCCCCCCCCC [Example 2, (2S,3R,4E)-3-Hydroxy-2-hexadecanoylamino-1-[4,6-di-O-(sodiumoxysulfonyl)-β-D-galactopyranosyloxy]-4-octadecene] | 39 | 63 | 33.5
CCCCCCCC/C=C\CCCCCCCCCCCCCC(=O)N[C@@H](CO[C@@H]1O[C@H](COS(=O)(=O)O)[C@H](OC(=O)c2ccccc2)[C@H](OC(=O)c2ccccc2)[C@H]1OS(=O)(=O)O)[C@@H](/C=C/CCCCCCCCCCCCC)OC(=O)c1ccccc1 [Example 7, (2S,3R,4E)-3-Benzoyloxy-1-[3,4-di-O-benzoyl-2,6-di-O-(sodiumoxysulfonyl)-β-D-galactopyranosyloxy]-2-(cis-15-tetracosenoylamino)-4-octadecene] | 11 | 56 | 46
